Measurements reported in PMC9821237, “Spectroscopic Characterization and Biological Activity of Hesperetin Schiff Bases and Their Cu(II) Complexes” (International Journal of Molecular Sciences, 2023).
Where two headings read alike, the source gives them in different places. Marks after values point to notes of the source that are not given here.

What was measured:
[1] = tested on: HeLa cells; experiment: Neutral comet assay, DNA double-strand breaks (DSBs); format: cell-based, human; details: 50 µM
Experimental: The ability of tested compounds (at concentration of 50 µM) to induce DNA double-strand breaks (DSBs) in model HeLa cells was evaluated by the neutral comet assay according to Błasiak et al. (2012). In this version of the comet assay electrophoresis ran in a buffer consisting of 100 mM Tris and 300 mM sodium acetate at pH 9.0 (with glacial acetic acid). Electrophoresis was conducted for 60 min, after a 20 min equilibrium period, at an electric field strength of 0.41 V/cm (50 mA) at 4 °C. The slides were then proceeded as described in the “Single-cell gel electrophoresis assay” section.

[2] = tested on: HeLa cells; experiment: Comet assay with endonuclease III, oxidative DNA damage; format: cell-based, human; details: 50 µM, net damage recognised by Endo III (oxidative DNA damage)
Experimental: Oxidative DNA damage was evaluated with the DNA repair enzyme–endonuclease III (Endo III, New England Biolabs Inc., Germany) in model HeLa cells. The procedure was performed according to [67]. To estimate the ability of the enzyme to recognize oxidized DNA bases, the cells were incubated either with tested compounds (at concentration of 50 µM), or hydrogen peroxide (50 µM), lysed and post-treated with Endo III. After lysis slides were washed three times in an enzyme buffer (composed of 40 mM HEPES-KOH, 0.1 KCl, 0.5 mM EDTA, 0.2 mg/mL bovine serum albumin, pH 8.0) and drained, and the agarose was covered with 25 µL of either enzyme buffer or enzyme at 1 µg/mL in buffer, sealed with a cover glass and incubated for 30 min at 37°C. Further steps were described above. To determine the net value of DNA damage recognized by the enzyme, the DNA damage observed in the absence of the enzyme was subtracted from that measured in the presence of it.

[3] = tested on: Caco-2 cells; details: human, 1 h, 50 µM
[4] = tested on: HeLa cells; experiment: Alkaline comet assay, basal endogenous DNA damage; details: 1 h, mean ± S.E.M.
[5] = tested on: Caco-2 cells; experiment: Alkaline comet assay, basal endogenous DNA damage; details: Caco-2, 50 µM, 1 h, mean ± S.E.M.
[6] = tested on: LLC-PK1 cells; experiment: Alkaline comet assay, basal endogenous DNA damage; details: LLC-PK1, 50 µM, 1 h, mean ± S.E.M.

| SMILES | Mean DNA (%) in Comet Tail (±S.E.M.) of HeLa Cells, DSBs [1] | Mean DNA (%) in Comet Tail (±S.E.M.) of HeLa Cells, Endo III [2] | DNA damage, percentage of DNA in the comet tail [3] | DNA damage, percentage of DNA in the comet tail ([4]; 1 µM) | DNA damage, percentage of DNA in the comet tail [5] | DNA damage, percentage of DNA in the comet tail [6] | DNA damage, percentage of DNA in the comet tail ([4]; 50 µM) |
| --- | --- | --- | --- | --- | --- | --- | --- |
| COc1ccc(C2C/C(=N\NC(=O)c3ccccc3)c3c([O][Cu][O]C(C)=O)cc(O)cc3O2)cc1O (stereo not drawn) [CuHHSB, (E)-acetoxy((4-(2-benzoylhydrazono)-7-hydroxy-2-(3-hydroxy-4-methoxyphenyl)chroman-5-yl)oxy)copper] | 14.4 ± 0.7 ^a,b % | 8.3 ± 2.7 ^a % | – | – | – | – | – |
| COc1ccc(C2CC(=NNC(N)=S)c3c(O)cc(O)cc3O2)cc1O (stereo not drawn) [HTSC, N-[2,3-dihydro-5,7-dihydroxy-2-(3-hydroxy-4-methoxyphenyl)chromen-4-ylidene]thiosemicarbazide] | 13.5 ± 0.7 ^a,c % | 10.2 ± 2.0 ^a % | 32.8% ± 4.4% | – | – | – | – |
| COc1ccc(C2C/C(=N\NC(=O)c3ccncc3)c3c([O][Cu][O]C(C)=O)cc(O)cc3O2)cc1O (stereo not drawn) [CuHIN, (E)-acetoxy((7-hydroxy-2-(3-hydroxy-4-methoxyphenyl)-4-(2-isonicotinoylhydrazono)chroman-5-yl)oxy)copper] | 7.7 ± 3.6 ^a % | 12.2 ± 4.2 ^a % | – | – | – | – | – |
| COc1ccc(C2CC(=NNC(=O)c3ccncc3)c3c(O)cc(O)cc3O2)cc1O (stereo not drawn) [HIN, N-[2,3-dihydro-5,7-dihydroxy-2-(3-hydroxy-4-methoxyphenyl)chromen-4-ylidene]isonicotinohydrazide] | 19.5 ± 0.7 ^a % | 5.3 ± 3.5 ^a % | – | 28.9% ± 3.5% | 23.1% ± 3.4% | – | – |
| COc1ccc(C2C/C(=N\NC(N)=S)c3c([O][Cu][O]C(C)=O)cc(O)cc3O2)cc1O (stereo not drawn) [CuHTSC, (E)-acetoxy((4-(2-carbamothioylhydrazono)-7-hydroxy-2-(3-hydroxy-4-methoxyphenyl)chroman-5-yl)oxy)copper] | 6.4 ± 2.3 ^a,c % | 11.6 ± 1.9 ^a % | – | – | – | – | – |
| COc1ccc(C2CC(=NNC(=O)c3ccccc3)c3c(O)cc(O)cc3O2)cc1O (stereo not drawn) [HHSB, N-[2,3-dihydro-5,7-dihydroxy-2-(3-hydroxy-4-methoxyphenyl)chromen-4-ylidene]benzhydrazide] | – | 7.5 ± 3.9 ^a % | – | 28.8% ± 4.1% | 34.0% ± 4.6% | 26.3% ± 4.8% | – |
| OO [hydrogen peroxide, reference compound] | – | 26.2% ± 4.6% | – | – | 42.0% ± 3.6% | 54.1% ± 0.2% | 50.3% ± 0.6% |
| N.N.[Cl][Pt][Cl] [cisplatin, reference compound] | 30.2 ± 3.4% | 26.5 ± 3.9% | – | – | – | 73.1% ± 3.3% | – |
